# Source: US20100093748A1, “SUBSTITUTED PIPERIDINES HAVING PROTEIN KINASE INHIBITING ACTIVITY” (ASTEX THERAPEUTICS LIMITED, priority 2006, published 2010)
# What was measured:
# PKA catalytic domain = target: T1, PKA catalytic domain (Homo sapiens, UniProt P17612); assay: Measurement of PKA kinase inhibitory activity (IC50), radiometric filter plate assay; type: biochemical; conditions: 1 nM enzyme, 40 μM ATP, 20 minutes
# T1 construct: using the PKA catalytic domain from Upstate Biotechnology (#14-440); purchased Upstate Biotechnology 14-440
# Protocol: Compounds of the invention can be tested for PK inhibitory activity using the PKA catalytic domain from Upstate Biotechnology (#14-440) and the 9 residue PKA specific peptide (GRTGRRNSI), also from Upstate Biotechnology (#12-257), as the substrate. A final concentration of 1 nM enzyme is used in a buffer that includes 20 mM MOPS pH 7.2, 40 μM ATP/γ^33P-ATP and […] substrate. Compounds are added in dimethylsulphoxide (DMSO) solution to a final DMSO concentration of 2.5%. The reaction is allowed to proceed for 20 minutes before addition of excess orthophosphoric acid to quench activity. Unincorporated γ^33P-ATP is then separated from phosphorylated proteins on a Millipore MAPH filter plate. The plates are washed, scintillant is added and the plates are then subjected to counting on a Packard Topcount.
# The % inhibition of the PKA activity is calculated and plotted in order to determine the concentration of test compound required to inhibit 50% of the PKA activity (IC50).
# PKB-PIF fusion protein = target: T2, PKB-PIF fusion protein (Homo sapiens, UniProt P31751); assay: Measurement of PKB kinase inhibitory activity (IC50), radiometric filter plate assay; type: biochemical; conditions: 0.6 nM enzyme, 30 μM ATP, AKTide-2T substrate, 20 minutes
# T2 construct: PIF (fusion partner); made in house
# T2 sequence (P31751 with tags, fused parts or gaps limits assumed): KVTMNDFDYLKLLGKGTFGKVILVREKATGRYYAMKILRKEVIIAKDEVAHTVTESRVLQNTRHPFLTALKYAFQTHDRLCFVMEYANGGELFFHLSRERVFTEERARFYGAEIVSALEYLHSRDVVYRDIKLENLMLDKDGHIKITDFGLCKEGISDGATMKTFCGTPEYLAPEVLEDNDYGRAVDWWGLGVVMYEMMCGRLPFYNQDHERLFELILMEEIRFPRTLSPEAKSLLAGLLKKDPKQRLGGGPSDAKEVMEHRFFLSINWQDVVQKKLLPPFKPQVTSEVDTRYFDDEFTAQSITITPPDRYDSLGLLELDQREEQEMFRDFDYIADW
# Description: The inhibition of protein kinase B (PKB) activity by compounds can be determined essentially as described by Andjelkovic et al. (Mol. Cell. Biol. 19, 5061-5072 (1999)) but using a fusion protein described as PKB-PIF and described in full by Yang et al (Nature Structural Biology 9, 940-944 (2002)). The protein is purified and activated with PDK1 as described by Yang et al. The peptide AKTide-2T (H-A-R-K-R-E-R-T-Y-S-F-G-H-H-A-OH) obtained from Calbiochem (#123900) is used as a substrate. A final concentration of 0.6 nM enzyme is used in a buffer that includes 20 mM MOPS pH 7.2, 30 μM ATP/γ^33P-ATP and 25 µM substrate. Compounds are added in DMSO solution to a final DMSO concentration of 2.5%. The reaction is allowed to proceed for 20 minutes before addition of excess orthophosphoric acid to quench activity. The reaction mixture is transferred to a phosphocellulose filter plate where the peptide binds and the unused ATP is washed away. After washing, scintillant is added and the incorporated activity measured by scintillation counting.
# The % inhibition of the PKB activity is calculated and plotted in order to determine the concentration of test compound required to inhibit 50% of the PKB activity (IC50).
# [1] = tested on: phosphorylation of Serine-9 residue in Glycogen Synthase Kinase-3beta as surrogate marker of cellular PKB (Akt) activity; assay: In vitro MDA-MB-468 human breast adenocarcinoma GSK-3 phosphorylation assay; type: cell-based; conditions: MDA-MB-468 cells, 2 hours compound incubation, mean IC50, read-out: Cell pGSK3b IC50
# In short: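 MDA-MB-468 cells (5000/well) were treated with compound for 2 h at 37° C, then fixed and immunostained for phospho-Ser9 GSK-3β with an Alexa Fluor 488 secondary antibody. Fluorescence was quantified on an Acumen Explorer. IC50 came from a background-corrected 4-parameter logistic fit with minimum set to zero; obvious outliers were excluded from means.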
SMILES,IC50 (PKA catalytic domain) [nM],IC50 (PKB-PIF fusion protein) [nM],IC50 [1] [nM]
"NC1(c2nc3cccc(F)c3[nH]2)CCN(c2ncnc3[nH]ccc23)CC1 [Example 1, 4-(7-Fluoro-1H-benzoimidazol-2-yl)-1-(7H-pyrrolo[2,3-d]pyrimidin-4-yl)-piperidin-4-ylamine]",< 1000,< 100,–
"NC1(c2nc3cc(F)c(F)cc3[nH]2)CCN(c2ncnc3[nH]ccc23)CC1 [Example 2, 4-(5,6-Difluoro-1H-benzoimidazol-2-yl)-1-(7H-pyrrolo[2,3-d]pyrimidin-4-yl)-piperidin-4-ylamine]",< 1000,< 100,–
"NC1(c2nc3ccc(F)c(F)c3[nH]2)CCN(c2ncnc3[nH]ccc23)CC1 [Example 3, 4-(6,7-Difluoro-1H-benzoimidazol-2-yl)-1-(7H-pyrrolo[2,3-d]pyrimidin-4-yl)-piperidin-4-ylamine]",< 1000,< 100,–
"Cc1cccc2nc(C3(N)CCN(c4ncnc5[nH]ccc45)CC3)[nH]c12 [Example 4, 4-(7-Methyl-1H-benzoimidazol-2-yl)-1-(7H-pyrrolo[2,3-d]pyrimidine-4-yl)-piperidin-4-ylamine]",< 1000,< 100,–
"NC1(c2nc3ccc(F)cc3[nH]2)CCN(c2ncnc3[nH]ccc23)CC1 [Example 6, 4-(6-Fluoro-1H-benzoimidazol-2-yl)-1-(7H-pyrrolo[2,3-d]pyrimidin-4-yl)-piperidin-4-ylamine]",< 1000,< 100,560
"NC1(c2nc3cc(F)cc(F)c3[nH]2)CCN(c2ncnc3[nH]ccc23)CC1 [Example 7, 4-(5,7-Difluoro-1H-benzoimidazol-2-yl)-1-(7H-pyrrolo[2,3-d]pyrimidin-4-yl)-piperidin-4-ylamine]",–,< 100,940
"COc1ccc2[nH]c(C3(N)CCN(c4ncnc5[nH]ccc45)CC3)nc2c1 [Example 8, 4-(5-Methoxy-1H-benzoimidazol-2-yl)-1-(7H-pyrrolo[2,3-d]pyrimidin-4-yl)-piperidin-4-ylamine]",< 1000,< 100,–
"NC1(c2nc3ccccc3[nH]2)CCN(c2ncnc3[nH]ccc23)CC1 [Example 12, 4-(1H-benzoimidazol-2-yl)-1-(7H-pyrrolo[2,3-d]pyrimidin-4-yl)-piperidin-4-ylamine]",< 1000,< 100,–
"Cc1ccc2nc(C3(N)CCN(c4ncnc5[nH]cnc45)CC3)[nH]c2c1 [Example 17, 4-(6-Methyl-1H-benzoimidazol-2-yl)-1-(9H-purin-6-yl)-piperidin-4-ylamine]",< 1000,< 100,320
"NC1(c2nc3ccccc3[nH]2)CCN(c2ncnc3[nH]c(=O)[nH]c23)CC1 [Example 18, 6-[4-amino-4-(1H-benzoimidazol-2-yl)-piperidin-1-yl]-7,9-dihydro-purin-8-one]",< 1000,< 100,–
"CNC1(c2nc3ccccc3[nH]2)CCN(c2ncnc3[nH]ccc23)CC1 [Example 33, [4-(1H-benzoimidazol-2-yl)-1-(7H-pyrrolo[2,3-d]pyrimidin-4-yl)-piperidin-4-yl]-methyl-amine]",–,< 1000,–
"NCC1(c2nc3ccccc3[nH]2)CCN(c2ncnc3[nH]ccc23)CC1 [Example 34, C-[4-(1H-Benzoimidazol-2-yl)-1-(7H-pyrrolo[2,3-d]pyrimidin-4-yl)-piperidin-4-yl]-methylamine]",–,< 100,–
"OCC1(c2nc3ccccc3[nH]2)CCN(c2ncnc3[nH]ccc23)CC1 [Example 35, [4-(1H-Benzoimidazol-2-yl)-1-(7H-pyrrolo[2,3-d]pyrimidin-4-yl)-piperidin-4-yl]-methanol]",< 1000,< 1000,–
"NCC1(c2nc3ccccc3o2)CCN(c2ncnc3[nH]ccc23)CC1 [Example 36, C-[4-Benzooxazol-2-yl-1-(7H-pyrrolo[2,3-d]pyrimidin-4-yl)-piperidin-4-yl]-methylamine]",–,< 100,–
"NC1(c2nc3ccccc3o2)CCN(c2ncnc3[nH]ccc23)CC1 [Example 37, 4-Benzooxazol-2-yl-1-(7H-pyrrolo[2,3-d]pyrimidin-4-yl)-piperidin-4-ylamine]",< 1000,< 100,–
"NC1(c2nc3ccccc3o2)CCN(c2ncnc3[nH]c(=O)[nH]c23)CC1 [Example 38, 6-(4-amino-4-benzooxazol-2-yl-piperidin-1-yl)-7,9-dihydro-purin-8-one]",–,< 1000,–
"NC1(c2ncc(-c3ccccc3)[nH]2)CCN(c2ncnc3[nH]ccc23)CC1 [Example 39, 4-(5-Phenyl-1H-imidazol-2-yl)-1-(7H-pyrrolo[2,3-d]pyrimidin-4-yl)-piperidin-4-ylamine]",–,< 100,–
"NC1(c2ncc(-c3ccccc3)o2)CCN(c2ncnc3[nH]ccc23)CC1 [Example 40, 4-(5-Phenyl-oxazol-2-yl)-1-(7H-pyrrolo[2,3-d]pyrimidin-4-yl)-piperidin-4-ylamine]",–,< 1000,–
"NC1(c2ncc(-c3ccccc3)[nH]2)CCN(c2ccnc3[nH]ccc23)CC1 [Example 41, 4-(5-phenyl-1H-imidazol-2-yl)-1-(1H-pyrrolo[2,3-b]pyridin-4-yl)-piperidin-4-ylamine]",–,< 100,–
